Assay results published in US20240317777A1, “NOVEL MACROCYCLIC AMINOPYRAZOLE COMPOUNDS AS CDK2 INHIBITORS” (Accutar Biotechnology Inc., priority 2023, published 2024).
Where two headings read alike, the source gives them in different places. Each block holds one molecule with its values, some of them ahead of it.

Experiments:
CDK2-CYCLIN E1 = CDK2-CYCLIN E1 (Homo sapiens, UniProt P24941); assay: CDK protein kinase inhibition by ADP-Glo assay, CDK2-CYCLIN E1; type: biochemical; settings: read-out: CDK2-CYCLINE, IC50
Procedure, shortened: (§1)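 Enzyme reactions contain 1000 μM ATP and 5 mM MgCl2 in HEPES pH 7.5 with BSA, Triton X-100, DTT, orthovanadate and beta-glycerophosphate. They proceed at 22° C before ADP-Glo luminescent detection of ADP produced.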

CDK9-CYCLIN T1 = CDK9-CYCLIN T1 (Homo sapiens, UniProt P50750); assay: CDK protein kinase inhibition by ADP-Glo assay, CDK9-CYCLIN T1; type: biochemical; settings: for IC50: read-out: CDK9-CYCLINT1, IC50; for CDK2 Fold selectivity, CDK9: CDK2 versus CDK9
Sequence of CDK9-CYCLIN T1 (P50750 whole entry): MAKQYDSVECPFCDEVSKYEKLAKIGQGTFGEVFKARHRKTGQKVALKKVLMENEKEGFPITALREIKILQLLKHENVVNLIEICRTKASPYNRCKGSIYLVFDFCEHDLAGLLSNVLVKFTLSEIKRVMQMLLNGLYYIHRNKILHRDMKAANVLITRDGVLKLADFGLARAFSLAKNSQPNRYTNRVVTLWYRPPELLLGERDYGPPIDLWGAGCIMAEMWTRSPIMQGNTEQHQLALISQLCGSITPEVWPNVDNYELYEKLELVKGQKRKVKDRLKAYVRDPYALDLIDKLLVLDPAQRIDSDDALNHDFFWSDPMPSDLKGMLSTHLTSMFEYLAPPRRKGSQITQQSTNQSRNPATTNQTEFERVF
Sequence of CDK9-CYCLIN T1 (O60563 whole entry partner): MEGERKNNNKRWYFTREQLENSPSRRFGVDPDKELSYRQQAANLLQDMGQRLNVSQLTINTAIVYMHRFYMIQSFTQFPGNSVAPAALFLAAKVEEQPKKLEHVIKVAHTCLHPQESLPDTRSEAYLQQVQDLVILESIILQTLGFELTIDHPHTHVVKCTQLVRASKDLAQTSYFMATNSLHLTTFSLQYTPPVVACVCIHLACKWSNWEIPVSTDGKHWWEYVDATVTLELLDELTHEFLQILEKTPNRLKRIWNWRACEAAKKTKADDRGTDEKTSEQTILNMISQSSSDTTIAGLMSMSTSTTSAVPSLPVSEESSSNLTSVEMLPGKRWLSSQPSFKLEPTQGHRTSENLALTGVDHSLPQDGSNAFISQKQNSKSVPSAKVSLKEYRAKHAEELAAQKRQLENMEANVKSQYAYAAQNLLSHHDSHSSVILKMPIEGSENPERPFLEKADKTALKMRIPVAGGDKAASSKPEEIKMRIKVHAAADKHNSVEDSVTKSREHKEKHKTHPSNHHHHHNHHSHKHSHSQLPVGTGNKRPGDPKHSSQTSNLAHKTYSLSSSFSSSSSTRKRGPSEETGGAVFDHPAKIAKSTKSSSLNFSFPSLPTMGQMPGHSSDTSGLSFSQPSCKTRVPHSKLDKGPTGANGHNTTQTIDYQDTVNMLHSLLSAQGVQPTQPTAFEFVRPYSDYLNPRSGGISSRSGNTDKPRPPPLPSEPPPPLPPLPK
Procedure, shortened: as §1

CDK4-CYCLIN D1 = CDK4-CYCLIN D1 (Homo sapiens, UniProt P11802); assay: CDK protein kinase inhibition by ADP-Glo assay, CDK4-CYCLIN D1; type: biochemical; settings: for IC50: read-out: CDK4-CYCLIND1, IC50; for CDK2 Fold selectivity, CDK4: CDK2 versus CDK4
Sequence of CDK4-CYCLIN D1 (P11802 whole entry): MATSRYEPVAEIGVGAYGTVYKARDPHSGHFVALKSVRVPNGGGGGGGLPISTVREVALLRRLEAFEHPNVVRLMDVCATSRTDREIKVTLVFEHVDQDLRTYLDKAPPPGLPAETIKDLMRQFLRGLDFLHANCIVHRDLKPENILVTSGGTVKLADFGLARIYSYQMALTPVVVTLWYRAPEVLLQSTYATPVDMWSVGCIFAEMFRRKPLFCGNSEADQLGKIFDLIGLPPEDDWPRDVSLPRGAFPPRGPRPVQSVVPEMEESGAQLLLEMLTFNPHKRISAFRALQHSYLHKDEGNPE
Sequence of CDK4-CYCLIN D1 (P24385 whole entry partner): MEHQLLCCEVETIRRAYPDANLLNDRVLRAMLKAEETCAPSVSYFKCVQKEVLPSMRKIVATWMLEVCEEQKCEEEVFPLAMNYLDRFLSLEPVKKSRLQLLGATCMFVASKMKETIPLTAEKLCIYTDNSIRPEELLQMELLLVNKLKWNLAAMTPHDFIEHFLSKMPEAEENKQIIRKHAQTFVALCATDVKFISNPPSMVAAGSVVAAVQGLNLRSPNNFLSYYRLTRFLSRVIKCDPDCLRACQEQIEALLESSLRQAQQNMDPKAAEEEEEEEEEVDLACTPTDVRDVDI
Procedure, shortened: as §1

[1] = test system: CCNE1-amplified OVCAR3 cells; assay: Cell growth inhibition of CCNE1-amplified OVCAR3 cells (CellTiter-Glo); type: cell-based; settings: Homo sapiens, OVCAR-3, 144 h, 6 days
Procedure, shortened: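 Growth read-out was CellTiter-Glo luminescence, taken after 10 min at room temperature at the end of a 6-day compound exposure at 37 °C. Compounds were diluted from DMSO stocks across various concentrations.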

CDK6-CYCLIN D3 = CDK6-CYCLIN D3 (Homo sapiens, UniProt Q00534); assay: CDK protein kinase inhibition by ADP-Glo assay, CDK6-CYCLIN D3; type: biochemical; settings: for IC50: read-out: CDK6-CYCLIND3, IC50; for CDK2 Fold selectivity, CDK6: CDK2 versus CDK6
Sequence of CDK6-CYCLIN D3 (Q00534 whole entry): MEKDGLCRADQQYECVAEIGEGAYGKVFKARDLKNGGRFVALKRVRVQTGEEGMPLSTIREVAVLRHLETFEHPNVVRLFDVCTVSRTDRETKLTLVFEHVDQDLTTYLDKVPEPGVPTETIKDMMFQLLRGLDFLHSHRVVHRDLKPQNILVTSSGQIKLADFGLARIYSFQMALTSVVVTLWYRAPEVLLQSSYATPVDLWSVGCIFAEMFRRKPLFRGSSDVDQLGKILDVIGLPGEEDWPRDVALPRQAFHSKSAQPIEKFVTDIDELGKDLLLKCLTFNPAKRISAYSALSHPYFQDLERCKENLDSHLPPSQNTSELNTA
Sequence of CDK6-CYCLIN D3 (P30281 whole entry partner): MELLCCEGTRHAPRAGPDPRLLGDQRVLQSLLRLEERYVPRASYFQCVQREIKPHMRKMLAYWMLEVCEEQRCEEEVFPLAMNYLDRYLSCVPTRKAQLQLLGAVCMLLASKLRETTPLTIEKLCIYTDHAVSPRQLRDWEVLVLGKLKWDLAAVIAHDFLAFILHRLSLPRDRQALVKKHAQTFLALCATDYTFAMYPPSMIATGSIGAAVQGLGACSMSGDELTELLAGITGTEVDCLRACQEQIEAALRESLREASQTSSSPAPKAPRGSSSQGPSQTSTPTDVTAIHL
Procedure, shortened: as §1

[2] = test system: Phospho-Rb (Ser807/811) in OVCAR3 cells; assay: Phospho-Rb expression inhibition in OVCAR3 cells quantified by In Cell Western; type: cell-based; settings: Homo sapiens, OVCAR-3, 24 hours, read-out: OVCAR-3 pRb IC50
Procedure, shortened: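 In-cell western: after 24 h compound exposure at 37° C, fixed OVCAR3 cells co-stained for pRb Ser807/811 (800 nm channel) and total Rb (680 nm channel), imaged by LI-COR Odyssey.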

CCNE1-normal SKOV3 cells = assay: Cell growth inhibition of CCNE1-normal SKOV3 cells (CellTiter-Glo); type: cell-based; settings: Homo sapiens, SK-OV-3, 144 h, 6 days
Procedure, shortened: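 Growth was measured by CellTiter-Glo luminescence after 6 days' compound exposure at 37 °C. Cells were plated one day before dosing at 1000 per well in medium with 10% FBS, and compounds were diluted from DMSO stocks.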

CDK1-CYCLIN B = CDK1-CYCLIN B (Homo sapiens, UniProt P06493); assay: CDK protein kinase inhibition by ADP-Glo assay, CDK1-CYCLIN B; type: biochemical; settings: for IC50: read-out: CDK1-CYCLINB, IC50; for CDK2 Fold selectivity, CDK1: CDK2 versus CDK1
Sequence of CDK1-CYCLIN B (P06493 whole entry): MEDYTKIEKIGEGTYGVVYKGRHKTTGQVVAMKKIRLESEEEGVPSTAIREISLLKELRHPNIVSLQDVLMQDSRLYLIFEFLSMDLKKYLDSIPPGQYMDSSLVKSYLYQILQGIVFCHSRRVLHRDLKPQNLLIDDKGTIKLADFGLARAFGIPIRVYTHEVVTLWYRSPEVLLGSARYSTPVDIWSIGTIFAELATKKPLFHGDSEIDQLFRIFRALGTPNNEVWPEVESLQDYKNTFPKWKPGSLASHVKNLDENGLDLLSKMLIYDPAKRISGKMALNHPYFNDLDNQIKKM
Sequence of CDK1-CYCLIN B (P14635 whole entry partner): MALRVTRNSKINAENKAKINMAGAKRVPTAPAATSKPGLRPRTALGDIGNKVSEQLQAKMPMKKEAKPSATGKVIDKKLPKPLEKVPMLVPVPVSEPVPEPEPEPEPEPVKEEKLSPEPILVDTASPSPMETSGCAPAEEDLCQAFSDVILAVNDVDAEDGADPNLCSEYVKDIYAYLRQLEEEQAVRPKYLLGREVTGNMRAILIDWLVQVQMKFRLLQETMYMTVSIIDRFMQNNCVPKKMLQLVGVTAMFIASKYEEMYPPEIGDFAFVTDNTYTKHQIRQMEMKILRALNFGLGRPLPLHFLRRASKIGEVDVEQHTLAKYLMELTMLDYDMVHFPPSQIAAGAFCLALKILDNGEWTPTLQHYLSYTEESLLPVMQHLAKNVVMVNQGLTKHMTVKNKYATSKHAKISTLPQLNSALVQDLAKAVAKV
Procedure, shortened: as §1

[3] = Table 35, recombinant CDK kinase

- IC50 (CDK2-CYCLIN E1; ADP-Glo, 1000 μM ATP, Table 21): ≤ 10 nM
- IC50 (CDK9-CYCLIN T1; ADP-Glo, 1000 μM ATP, Table 21): 100 to 500 nM
- CDK2 Fold selectivity, CDK9 (CDK9-CYCLIN T1; Table 22): B (B, >100 and ≤500)
- IC50 (CDK4-CYCLIN D1; ADP-Glo, 1000 μM ATP, Table 21): 100 to 500 nM
- CDK2 Fold selectivity, CDK4 (CDK4-CYCLIN D1; Table 22): D (D, >20 and ≤50)
- IC50 [1]: 2 to 10 nM
- IC50 (CDK6-CYCLIN D3; ADP-Glo, 1000 μM ATP, Table 21): 50 to 100 nM
- CDK2 Fold selectivity, CDK6 (CDK6-CYCLIN D3; Table 22): D (D, >20 and ≤50)
- IC50 [2]: 2 to 10 nM
- IC50 (CDK1-CYCLIN B; ADP-Glo, 1000 μM ATP, Table 21): 10 to 50 nM
- CDK2 Fold selectivity, CDK1 (CDK1-CYCLIN B; Table 22): E (E, <20)
SMILES: C[C@@H]1Oc2cncc(c2)Nc2cc(n[nH]2)[C@H]2CC[C@H](C2)OC(=O)N[C@H]2C[C@H]1C2 [Compound 150, (1^1S,1^3R,7^1R,7^3S,6S,Z)-6-methyl-2^1H-5,10-dioxa-3,8-diaza-4(3,5)-pyridina-2(3,5)-pyrazola-1(1,3)-cyclopentana-7(1,3)-cyclobutanacyclodecaphan-9-one]
- IC50 (CCNE1-normal SKOV3 cells): 250 to 1250 nM

- IC50 (CDK2-CYCLIN E1; ADP-Glo, 1000 μM ATP, Table 15): ≤ 10 nM
- IC50 (CDK9-CYCLIN T1; ADP-Glo, 1000 μM ATP, Table 15): 100 to 500 nM
- IC50 (CDK4-CYCLIN D1; ADP-Glo, 1000 μM ATP, Table 15): 100 to 500 nM
- IC50 [1]: 10 to 50 nM
- IC50 (CDK6-CYCLIN D3; ADP-Glo, 1000 μM ATP, Table 15): 100 to 500 nM
- IC50 [2]: 2 to 10 nM
- IC50 (CDK1-CYCLIN B; ADP-Glo, 1000 μM ATP, Table 15): 50 to 100 nM
SMILES: C[C@H]1OCCCNC(=O)O[C@@H]2CC[C@@H](C2)c2cc([nH]n2)Nc2ccnc1c2 [compound 71]
- IC50 (CCNE1-normal SKOV3 cells): 50 to 250 nM

- IC50 (CDK2-CYCLIN E1; ADP-Glo, 1000 μM ATP, Table 11): ≤ 10 nM
- IC50 (CDK2-CYCLIN E1; [3]): ≤ 10 nM
- IC50 (CDK9-CYCLIN T1; ADP-Glo, 1000 μM ATP, Table 11): 100 to 500 nM
- CDK2 Fold selectivity, CDK9 (CDK9-CYCLIN T1; Table 12): A (A, ≥500)
- IC50 (CDK9-CYCLIN T1; [3]): 50 to 100 nM
- CDK2 Fold selectivity against CDK9 (CDK9-CYCLIN T1; Table 36, fold selectivity for CDK2 over CDK9, recombinant CDK kinases): D (D, >20 and ≤50)
- IC50 (CDK4-CYCLIN D1; ADP-Glo, 1000 μM ATP, Table 11): 100 to 500 nM
- CDK2 Fold selectivity, CDK4 (CDK4-CYCLIN D1; Table 12): B (B, >100 and ≤500)
- IC50 (CDK4-CYCLIN D1; [3]): 10 to 50 nM
- CDK2 Fold selectivity against CDK4 (CDK4-CYCLIN D1; Table 36, fold selectivity for CDK2 over CDK4, recombinant CDK kinases): E (E, <20)
- IC50 [1]: 2 to 10 nM
- IC50 (CDK6-CYCLIN D3; ADP-Glo, 1000 μM ATP, Table 11): 100 to 500 nM
- CDK2 Fold selectivity, CDK6 (CDK6-CYCLIN D3; Table 12): A (A, ≥500)
- IC50 (CDK6-CYCLIN D3; [3]): 50 to 100 nM
- CDK2 Fold selectivity against CDK6 (CDK6-CYCLIN D3; Table 36, fold selectivity for CDK2 over CDK6, recombinant CDK kinases): D (D, >20 and ≤50)
- IC50 [2]: 2 to 10 nM
- IC50 (CDK1-CYCLIN B; ADP-Glo, 1000 μM ATP, Table 11): 10 to 50 nM
- CDK2 Fold selectivity, CDK1 (CDK1-CYCLIN B; Table 12): B (B, >100 and ≤500)
- IC50 (CDK1-CYCLIN B; [3]): 10 to 50 nM
- CDK2 Fold selectivity against CDK1 (CDK1-CYCLIN B; Table 36, fold selectivity for CDK2 over CDK1, recombinant CDK kinases): E (E, <20)
SMILES: O=C1N[C@H]2C[C@H](COc3cc(ccn3)Nc3cc(n[nH]3)[C@H]3CC[C@H](C3)O1)C2 [Compound 108, (1^1S,1^3R,7^1R,7^3S,Z)-2^1H-5,10-dioxa-3,8-diaza-4(4,2)-pyridina-2(3,5)-pyrazola-1(1,3)-cyclopentana-7(1,3)-cyclobutanacyclodecaphan-9-one]
- IC50 (CCNE1-normal SKOV3 cells): 250 to 1250 nM

- IC50 (CDK2-CYCLIN E1; ADP-Glo, 1000 μM ATP, Table 13): ≤ 10 nM
- IC50 (CDK9-CYCLIN T1; ADP-Glo, 1000 μM ATP, Table 13): 100 to 500 nM
- CDK2 Fold selectivity, CDK9 (CDK9-CYCLIN T1; Table 14): B (B, >100 and ≤500)
- IC50 (CDK4-CYCLIN D1; ADP-Glo, 1000 μM ATP, Table 13): > 500 nM
- CDK2 Fold selectivity, CDK4 (CDK4-CYCLIN D1; Table 14): B (B, >100 and ≤500)
- IC50 [1]: 50 to 250 nM
- IC50 (CDK6-CYCLIN D3; ADP-Glo, 1000 μM ATP, Table 13): 100 to 500 nM
- CDK2 Fold selectivity, CDK6 (CDK6-CYCLIN D3; Table 14): C (C, >50 and ≤100)
- IC50 [2]: 10 to 50 nM
- IC50 (CDK1-CYCLIN B; ADP-Glo, 1000 μM ATP, Table 13): 100 to 500 nM
- CDK2 Fold selectivity, CDK1 (CDK1-CYCLIN B; Table 14): D (D, >20 and ≤50)
SMILES: C[C@@H]1CCCNC(=O)O[C@@H]2CC[C@@H](C2)c2cc([nH]n2)Nc2cncc(c2)O1 [Compound 121, (1^1S,1^3R,6R,Z)-6-methyl-2^1H-5,12-dioxa-3,10-diaza-4(3,5)-pyridina-2(3,5)-pyrazola-1(1,3)-cyclopentanacyclododecaphan-11-one]
- IC50 (CCNE1-normal SKOV3 cells): > 1250 nM
